“And” between values parts separate entries of the source, which are not always exact repeats. Equal entries are not always repeated.

Holding throughout (type): toxicity, cell-based
For one data set, the system named is HEK-293T. In words: Incucyte cell viability with HEK293T. The following applies: human, 10 µM, compound concentration 10 uM.
Another data set relates to Fibroblast. In words: Incucyte cell viability with human fibroblast. The following applies: 10 µM, compound concentration 10 uM.
Another data set concerns U2OS. Description: Incucyte cell viability with U2OS. The following applies: human, 10 µM, compound concentration 10 uM.
Further: unitless GR value; below 1 slowed growth and below 0 cell loss.

Take `N[C@@H](Cn1cc(F)c(=O)[nH]c1=O)C(=O)O`: the “Growth Rate” value in the data set on HEK-293T (0 h, replicate number 1) is 0.81; in the data set with HEK-293T (6 h, replicate number 1), 0.82; with HEK-293T (6 h, replicate number 2), 0.86; in the data set with HEK-293T (12 h, replicate number 1), 0.99; with HEK-293T (24 h, replicate number 2) it was 0.96; in the data set on Fibroblast (12 h, replicate number 1) it was -0.98. Also, the “Growth Rate” value in the data set with Fibroblast (18 h, replicate number 1) is on record as 0.16; in the data set with Fibroblast (18 h, replicate number 2) it was 0.82; in the data set on Fibroblast (24 h, replicate number 1) it was 0.97; in the data set on Fibroblast (24 h, replicate number 2) it was 0.99; with U2OS (0 h, replicate number 1) it was 0.45; with U2OS (6 h, replicate number 2), 0.7. For the same molecule, the “Growth Rate” value worked out at 0.81 in the data set on U2OS (12 h, replicate number 2); 0.8 with U2OS (18 h, replicate number 2); 0.83 in the data set on U2OS (24 h, replicate number 2).

Take `CN1CC[C@@]23CCCC[C@@H]2[C@@H]1Cc1ccc(O)cc13.O=C(O)C(O)C(O)C(=O)O`: the “Growth Rate” value in the data set with HEK-293T (0 h, replicate number 1) is 0.54; with HEK-293T (0 h, replicate number 2), 0.37; with Fibroblast (0 h, replicate number 1), 0.67; in the data set with Fibroblast (6 h, replicate number 2), -0.93; in the data set with Fibroblast (12 h, replicate number 1), -0.94; in the data set on Fibroblast (12 h, replicate number 2), -0.3. Also, the “Growth Rate” value with Fibroblast (18 h, replicate number 1) is reported as 0.72; in the data set on Fibroblast (18 h, replicate number 2), 0.13; in the data set on Fibroblast (24 h, replicate number 2), 0.19; in the data set with U2OS (0 h, replicate number 2), -0.41.

For the molecule `CC(C)c1ccc(/C=N/NC(=O)c2ccc(O)cc2)cc1`, the “Growth Rate” value in the data set with HEK-293T (0 h, replicate number 1) turned out to be 0.78; in the data set with HEK-293T (6 h, replicate number 1), 0.39; in the data set on HEK-293T (6 h, replicate number 2), 0.04; with HEK-293T (12 h, replicate number 1), 0.85; with HEK-293T (12 h, replicate number 2), 0.36; with HEK-293T (18 h, replicate number 1) it was 0.85. The “Growth Rate” value in the data set on HEK-293T (18 h, replicate number 2) is 0.58; with HEK-293T (24 h, replicate number 1) it was 0.81; in the data set on HEK-293T (24 h, replicate number 2), 0.63; in the data set on Fibroblast (6 h, replicate number 1), -0.99; in the data set on Fibroblast (6 h, replicate number 2) it was 0.53; in the data set with Fibroblast (12 h, replicate number 2) it was 0.42. The “Growth Rate” value with Fibroblast (18 h, replicate number 2) was 0.57; in the data set on Fibroblast (24 h, replicate number 2) it was 0.46; with U2OS (0 h, replicate number 1) it was -0.47; in the data set on U2OS (0 h, replicate number 2), -0.95; in the data set with U2OS (24 h, replicate number 2), 0.98.

Regarding `CCn1c(-c2ccncc2)cc2c1CCNC2=O`, the “Growth Rate” value is given as -0.57 in the data set with HEK-293T (0 h, replicate number 1); -0.66 with HEK-293T (0 h, replicate number 2); 0.22 in the data set on HEK-293T (6 h, replicate number 1); -0.3 in the data set on HEK-293T (6 h, replicate number 2); -0.65 with HEK-293T (12 h, replicate number 1); -0.55 in the data set with HEK-293T (12 h, replicate number 2). Also, the “Growth Rate” value with HEK-293T (18 h, replicate number 1) is on record as -0.57; in the data set on HEK-293T (18 h, replicate number 2), -0.47; in the data set with HEK-293T (24 h, replicate number 1), -0.56; with HEK-293T (24 h, replicate number 2), -0.39; in the data set on Fibroblast (0 h, replicate number 1) it was -0.22; in the data set on Fibroblast (6 h, replicate number 1), -0.99. In addition, the “Growth Rate” value with U2OS (0 h, replicate number 1) is on record as -0.56; with U2OS (0 h, replicate number 2) it was 0.39; in the data set on U2OS (12 h, replicate number 1), 0.78; in the data set on U2OS (12 h, replicate number 2), 0.44; with U2OS (18 h, replicate number 1), 0.29; with U2OS (18 h, replicate number 2), 0.12. The “Growth Rate” value came to 0.13 with U2OS (24 h, replicate number 1) and 0.08 with U2OS (24 h, replicate number 2).

As to `CC(C)C[C@H](NC(=O)c1cc2ccccc2s1)C(=O)N1CCN(C(=O)[C@H](CO)NS(=O)(=O)c2ccc(Cl)cc2Cl)CC1`, the “Growth Rate” value was 0.99 in the data set on HEK-293T (0 h, replicate number 1); -0.15 with HEK-293T (6 h, replicate number 1); -0.01 in the data set on HEK-293T (6 h, replicate number 2); 0.69 with HEK-293T (12 h, replicate number 1); 0.27 with HEK-293T (12 h, replicate number 2); 0.71 in the data set on HEK-293T (18 h, replicate number 1). Moreover, the “Growth Rate” value in the data set on HEK-293T (18 h, replicate number 2) is 0.38; in the data set with HEK-293T (24 h, replicate number 1), 0.78; with HEK-293T (24 h, replicate number 2) it was 0.46; with Fibroblast (6 h, replicate number 2), -0.86; in the data set on Fibroblast (12 h, replicate number 1) it was -0.95; in the data set on Fibroblast (12 h, replicate number 2), 0.01. Besides, the “Growth Rate” value in the data set with Fibroblast (18 h, replicate number 1) was -0.18; in the data set on Fibroblast (18 h, replicate number 2), 0.68; in the data set with Fibroblast (24 h, replicate number 1), 0; in the data set on Fibroblast (24 h, replicate number 2), 0.65; in the data set on U2OS (0 h, replicate number 2), -1; with U2OS (6 h, replicate number 1) it was 0.27. The “Growth Rate” value in the data set on U2OS (6 h, replicate number 2) was 0.36; in the data set with U2OS (12 h, replicate number 1), 0.93; in the data set on U2OS (12 h, replicate number 2), 0.51; in the data set on U2OS (18 h, replicate number 1) it was 0.95; in the data set on U2OS (18 h, replicate number 2) it was 0.58; with U2OS (24 h, replicate number 2), 0.66.

For `CC1(C)OC(=O)c2ccc(Nc3ncc(-c4nnco4)c(N[C@H](CO)c4ccccc4)n3)cc21`, the “Growth Rate” value was 0.28 in the data set with HEK-293T (0 h, replicate number 1); -0.28 in the data set on HEK-293T (0 h, replicate number 2); 0.23 in the data set on HEK-293T (12 h, replicate number 1); -0.01 with HEK-293T (12 h, replicate number 2); 0.12 with HEK-293T (18 h, replicate number 1); -0.01 with HEK-293T (18 h, replicate number 2). Further, the “Growth Rate” value is on record as 0.09 in the data set on HEK-293T (24 h, replicate number 1); -0.02 in the data set on HEK-293T (24 h, replicate number 2); -0.49 in the data set on Fibroblast (0 h, replicate number 2); -1 with Fibroblast (6 h, replicate number 1); -0.4 in the data set with U2OS (0 h, replicate number 2); 0.78 in the data set with U2OS (12 h, replicate number 1). For the same molecule, the “Growth Rate” value in the data set with U2OS (18 h, replicate number 1) came out at 0.44; in the data set on U2OS (18 h, replicate number 2), 0.69; in the data set with U2OS (24 h, replicate number 1), 0.47; with U2OS (24 h, replicate number 2), 0.62.

As for `Clc1ccccc1C(c1ccccc1)(c1ccccc1)n1cccn1`, the “Growth Rate” value was 0.43 with HEK-293T (0 h, replicate number 1); 0.27 and 0.15 in the data set on HEK-293T (0 h, replicate number 2); 0.05 in the data set with HEK-293T (6 h, replicate number 1); 0.9 with HEK-293T (6 h, replicate number 2); 0.26 with HEK-293T (12 h, replicate number 1); 0.83 in the data set on HEK-293T (18 h, replicate number 1). Besides, the “Growth Rate” value is recorded as 0.89 in the data set on HEK-293T (24 h, replicate number 1); 0.64 in the data set with Fibroblast (6 h, replicate number 1); 0.39 in the data set on Fibroblast (12 h, replicate number 2); 0.46 in the data set with Fibroblast (18 h, replicate number 1); 0.54 with Fibroblast (24 h, replicate number 2); -0.86 in the data set on U2OS (0 h, replicate number 2). Also, the “Growth Rate” value is 0.24 in the data set on U2OS (6 h, replicate number 1); 0.65 with U2OS (6 h, replicate number 2); 0.78 with U2OS (12 h, replicate number 1); 0.9 in the data set with U2OS (12 h, replicate number 2); 1 with U2OS (18 h, replicate number 1); 0.94 with U2OS (18 h, replicate number 2). Moreover, the “Growth Rate” value in the data set on U2OS (24 h, replicate number 1) worked out at 0.91.

Take `Cc1ccccc1C1C(=O)N(C)c2cnc(Nc3ccc(S(N)(=O)=O)cc3)nc2N1C` (stereo not drawn): the “Growth Rate” value with HEK-293T (0 h, replicate number 1) is listed as -0.37; in the data set with HEK-293T (0 h, replicate number 2), -0.88; with Fibroblast (0 h, replicate number 1), -0.58; in the data set with Fibroblast (0 h, replicate number 2) it was -0.9; in the data set with Fibroblast (6 h, replicate number 1), -1; with U2OS (0 h, replicate number 1), -0.73. The “Growth Rate” value in the data set with U2OS (0 h, replicate number 2) was -0.83.

For the molecule `CC1=NC(C=C2C(=O)Nc3ccc(F)cc32)=C(C)C1C(=O)NCC(O)CN1CCOCC1` (stereo not drawn), the “Growth Rate” value with HEK-293T (0 h, replicate number 1) is 0.76; in the data set with HEK-293T (0 h, replicate number 2) it was -0.67; in the data set on HEK-293T (24 h, replicate number 2), 0.99; in the data set on Fibroblast (0 h, replicate number 1), 0.4; with Fibroblast (6 h, replicate number 1) it was -0.99; in the data set on U2OS (0 h, replicate number 2), -0.99.

For `O=C(/N=c1\sccn1Cc1ccccc1)c1c[nH]c2ncccc12`, the “Growth Rate” value is given as -0.78 in the data set with HEK-293T (0 h, replicate number 1); -0.86 in the data set with HEK-293T (0 h, replicate number 2); -1 in the data set on Fibroblast (6 h, replicate number 1); -0.96 with U2OS (0 h, replicate number 2).

The record behind these values is ChEMBL document CHEMBL5303304, “EUbOPEN Chemogenomics Library - IncuCyte” (2023).
